Experimental data: ChEMBL document CHEMBL1159048, “Asymmetric syntheses of daedalin A and quercinol and their tyrosinase inhibitory activity” (Bioorg Med Chem Lett, 2010)
pIC50: −log10 of the molar value.

Tests used:
[1] = target: T1, Tyrosinase (Agaricus bisporus) (UniProt O42713); test: Inhibition of mushroom tyrosinase at 100 uM
T1 sequence (whole entry): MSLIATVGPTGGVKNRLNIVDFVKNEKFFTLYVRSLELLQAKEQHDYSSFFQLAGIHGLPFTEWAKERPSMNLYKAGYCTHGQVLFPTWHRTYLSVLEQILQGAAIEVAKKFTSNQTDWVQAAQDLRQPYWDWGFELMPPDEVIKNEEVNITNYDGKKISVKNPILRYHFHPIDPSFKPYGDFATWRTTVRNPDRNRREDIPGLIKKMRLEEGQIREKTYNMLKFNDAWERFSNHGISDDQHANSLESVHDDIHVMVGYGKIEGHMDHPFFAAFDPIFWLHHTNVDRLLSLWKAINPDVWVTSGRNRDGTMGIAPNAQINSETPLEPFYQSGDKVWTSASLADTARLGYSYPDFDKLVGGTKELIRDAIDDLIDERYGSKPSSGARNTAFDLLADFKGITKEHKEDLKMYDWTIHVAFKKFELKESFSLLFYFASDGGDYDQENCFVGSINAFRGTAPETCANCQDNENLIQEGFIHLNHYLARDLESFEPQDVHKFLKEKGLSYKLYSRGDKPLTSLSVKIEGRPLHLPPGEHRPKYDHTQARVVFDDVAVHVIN

[2] = target: T1, Tyrosinase (Agaricus bisporus); test: Inhibition of mushroom tyrosinase at 200 uM
[3] = target: T1, Tyrosinase (Agaricus bisporus); test: Inhibition of mushroom tyrosinase at 400 uM
[4] = target: T2, Tyrosinase (Agaricus bisporus, UniProt O42713); test: Inhibition of mushroom tyrosinase
T2 sequence (O42713 whole entry): T1 sequence (whole entry)

inhibition [1]: 28.6%
inhibition [2]: 48.4%
inhibition [3]: 61.6%
pIC50 [4]: 3.68
SMILES: C[C@]1(CO)C=Cc2cc(O)ccc2O1 [DAEDALIN A]
